Data: patent US10005736B1, “Pyridine and pyrimidine derivatives” (Hoffmann-La Roche Inc., priority 2015, dated 2018)

Tests used:
[1] = target: T1, human EAAT3 (Homo sapiens, UniProt P43005); experiment: FLIPR Membrane Potential (FMP) assay, antagonist potency at human EAAT3; assay type: cell-based; settings: HEK-293 cells stably expressing human EAAT3; L-glutamate as agonist at EC80; antagonists applied 15 min before; Kb by Cheng-Prusoff from IC50
T1 construct: expressed in transfected cells; host or cells: HEK-293
T1 sequence (P43005 1-524): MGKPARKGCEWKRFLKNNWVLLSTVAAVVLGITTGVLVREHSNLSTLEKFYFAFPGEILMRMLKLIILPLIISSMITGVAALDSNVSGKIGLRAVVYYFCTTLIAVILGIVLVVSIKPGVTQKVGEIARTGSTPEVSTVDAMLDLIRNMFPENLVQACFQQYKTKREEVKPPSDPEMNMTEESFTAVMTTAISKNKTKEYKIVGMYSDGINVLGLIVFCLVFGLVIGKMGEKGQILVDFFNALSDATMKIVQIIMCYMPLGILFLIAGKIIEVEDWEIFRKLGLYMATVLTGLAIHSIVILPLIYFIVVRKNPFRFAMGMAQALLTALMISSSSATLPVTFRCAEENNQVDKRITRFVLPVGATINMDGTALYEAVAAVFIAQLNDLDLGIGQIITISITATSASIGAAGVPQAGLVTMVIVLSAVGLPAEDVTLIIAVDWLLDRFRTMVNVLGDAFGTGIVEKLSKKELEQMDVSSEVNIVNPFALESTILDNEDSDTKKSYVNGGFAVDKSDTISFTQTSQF
Experimental: The FLIPR Membrane Potential (FMP) Assay
HEK-293 cells stably expressing human EAAT3 were seeded at 55 000 cells/well in growth medium (DMEM glutamate free (Invitrogen 11960-044), 1% Pen Strep (10 ml/1 GIBCO BRL N^o 15140-023), 10% FCS non dialysed heat inactivated, 5 mg/l puromycin) in poly-D-lysine treated 96-well black microtiter plates with clear-bottom. After 24 h, the growth medium was removed and […] of Krebs buffer (140 mM NaCl, 4.7 mM KCl, 2.5 mM CaCl2, 1.2 mM MgCl2, 11 mM HEPES, 10 mM D-glucose, pH=7.4) added. The cells were then loaded by adding 100 μl/well FMP assay dye (FLIPR Membrane Potential assay reagent, Molecular Devices). The 96-well plates were then incubated at 37° C. for 1 h. The depolarization of the cells will cause more dye to enter in the cells, where it will bind to intracellular proteins and lipids and cause an increase in the fluorescence signal. Antagonist potency at human EAAT3 was determined by using L-glutamate as agonist at a concentration which gives 80% of the maximum response. The antagonists were applied 15 min before the application of the agonist L-glutamate. The assays were performed at room temperature and measurements done by using a Fluorometric Imaging Plate Reader (FLIPR, Molecular Devices) and filter #2. Responses were measured as peak increase in fluorescence minus basal (i.e. fluorescence without addition of L-glutamate). Kb was determined using the Cheng-Prusoff equation Kb=IC50/[1+(A/EC50)], where IC50 is the concentration of the antagonist producing 50% inhibition, A is the concentration of the agonist against which the IC50 is being determined (at EC80) and EC50 is the concentration of the agonist producing 50% […].

Row | Structure (SMILES) | Kb [1] | melting point
1 | CC(C)c1ncncc1-c1cc(C(=O)NC(C)(C)C)cc(-c2ccc(F)cc2)c1 [Example 20, N-tert-Butyl-3-(4-fluorophenyl)-5-(4-propan-2-ylpyrimidin-5-yl)-benzamide] | 81 nM | 79 °C
2 | Cc1ccncc1-c1cc(C(=O)NC(C)(C)C)cc(-c2ccc(F)cc2)c1 [Example 21, N-tert-Butyl-3-(4-fluorophenyl)-5-(4-methylpyridin-3-yl)-benzamide] | 200 nM | 83 °C
3 | CC(C)c1ncncc1-c1cc(C(=O)NC(C)(C)C2CC2)cc(-c2ccc(F)cc2)c1 [Example 22, N-(2-Cyclopropylpropan-2-yl)-3-(4-fluorophenyl)-5-(4-propan-2-ylpyrimidin-5-yl)-benzamide] | 57 nM | 74 °C
4 | Cc1ccncc1-c1cc(C(=O)NC(C)(C)C2CC2)cc(-c2ccc(F)cc2)c1 [Example 23, N-(2-Cyclopropylpropan-2-yl)-3-(4-fluorophenyl)-5-(4-methylpyridin-3-yl)-benzamide] | 78 nM | 76 °C
5 | Cc1ncccc1-c1cc(C(=O)NC(C)(C)C)cc(-c2ccc(F)cc2)c1 [Example 24, N-tert-Butyl-3-(4-fluorophenyl)-5-(2-methylpyridin-3-yl)-benzamide] | 170 nM | 78 °C
6 | Cc1ccc(-c2cc(C(=O)NC(C)(C)C)cc(-c3cncnc3C(C)C)c2)cc1 [Example 25, N-tert-Butyl-3-(4-methylphenyl)-5-(4-propan-2-ylpyrimidin-5-yl)-benzamide] | 250 nM | 91 °C
7 | CC(C)c1ncncc1-c1cc(C(=O)NC(C)(C)C)cc(-c2ccc(F)c(F)c2)c1 [Example 26, N-tert-Butyl-3-(3,4-difluorophenyl)-5-(4-propan-2-ylpyrimidin-5-yl)-benzamide] | 100 nM | 80 °C
8 | CC(C)c1ncncc1-c1cc(C(=O)NC(C)(C)C)cc(-c2ccc(C3CC3)cc2)c1 [Example 27, N-tert-Butyl-3-(4-cyclopropylphenyl)-5-(4-propan-2-ylpyrimidin-5-yl)-benzamide] | 180 nM | 91.5 °C
9 | CC(C)c1ncncc1-c1cc(C(=O)NC(C)(C)C)cc(-c2ccc(C(F)(F)F)cc2)c1 [Example 28, N-tert-Butyl-3-(4-propan-2-ylpyrimidin-5-yl)-5-[4-(trifluoromethyl)-phenyl]-benzamide] | 310 nM | 168 °C
10 | Cc1cc(-c2cc(C(=O)NC(C)(C)C)cc(-c3cncnc3C(C)C)c2)ccc1F [Example 29, N-tert-Butyl-3-(4-fluoro-3-methylphenyl)-5-(4-propan-2-ylpyrimidin-5-yl)-benzamide] | 720 nM | 83 °C
11 | Cc1ccc(-c2cc(C(=O)NC(C)(C)C)cc(-c3cncnc3C(C)C)c2)cc1F [Example 30, N-tert-Butyl-3-(3-fluoro-4-methylphenyl)-5-(4-propan-2-ylpyrimidin-5-yl)-benzamide] | 770 nM | 90 °C
12 | CC(C)c1ncncc1-c1cc(C(=O)NC(C)(C)C)cc(-c2ccc(Cl)c(F)c2)c1 [Example 31, N-tert-Butyl-3-(4-chloro-3-fluorophenyl)-5-(4-propan-2-ylpyrimidin-5-yl)-benzamide] | 320 nM | 93 °C
13 | CC(C)c1ncncc1-c1cc(C(=O)NC(C)(C)C)cc(-c2ccc(C#N)cc2)c1 [Example 32, N-tert-Butyl-3-(4-cyanophenyl)-5-(4-propan-2-ylpyrimidin-5-yl)-benzamide] | 570 nM | 98 °C
14 | COc1ccc(-c2cc(C(=O)NC(C)(C)C)cc(-c3cncnc3C(C)C)c2)cc1 [Example 33, N-tert-Butyl-3-(4-methoxyphenyl)-5-(4-propan-2-ylpyrimidin-5-yl)-benzamide] | 540 nM | 84 °C
15 | Cc1ccc(-c2cc(C(=O)NC(C)(C)C#N)cc(-c3cncnc3C(C)C)c2)cc1F [Example 34, N-(2-Cyanopropan-2-yl)-3-(3-fluoro-4-methylphenyl)-5-(4-propan-2-yl-pyrimidin-5-yl)-benzamide] | 400 nM | 102.5 °C
16 | Cc1cc(-c2cc(C(=O)NC(C)(C)C#N)cc(-c3cncnc3C(C)C)c2)ccc1F [Example 35, N-(2-Cyanopropan-2-yl)-3-(4-fluoro-3-methylphenyl)-5-(4-propan-2-yl-pyrimidin-5-yl)-benzamide] | 350 nM | 101 °C
17 | CC(C)c1ncncc1-c1cc(C(=O)NC(C)(C)C#N)cc(-c2ccc(F)cc2)c1 [Example 36, N-(2-Cyanopropan-2-yl)-3-(4-fluorophenyl)-5-(4-propan-2-yl-pyrimidin-5-yl)-benzamide] | 270 nM | 97 °C
18 | CC(C)c1ncncc1-c1cc(C(=O)NC(C)(C)C#N)cc(-c2ccc(C(F)(F)F)cc2)c1 [Example 37, N-(2-Cyanopropan-2-yl)-3-(4-propan-2-yl-pyrimidin-5-yl)-5-[4-(trifluoromethyl)-phenyl]-benzamide] | 210 nM | 98 °C
19 | CC(C)c1ncncc1-c1cc(C(=O)NC(C)(C)C#N)cc(-c2ccc(Cl)cc2)c1 [Example 38, 3-(4-Chlorophenyl)-N-(2-cyanopropan-2-yl)-5-(4-propan-2-yl-pyrimidin-5-yl)-benzamide] | 160 nM | 97 °C
20 | CC(C)(C)NC(=O)c1cc(-c2ccc(Cl)cc2)cc(-c2cncnc2C2CC2)c1 [Example 39, N-tert-Butyl-3-(4-chlorophenyl)-5-(4-cyclopropyl-pyrimidin-5-yl)-benzamide] | 270 nM | 96 °C
21 | CCc1ncncc1-c1cc(C(=O)NC(C)(C)C)cc(-c2ccc(Cl)cc2)c1 [Example 40, N-tert-Butyl-3-(4-chlorophenyl)-5-(4-ethyl-pyrimidin-5-yl)-benzamide] | 140 nM | 75 °C
